In paper PMC12434536, “Radiosynthesis and Preclinical Evaluation of a Carbon-11 Labeled Phosphodiesterase 7 Inhibitor for PET Neuroimaging” (ACS Medicinal Chemistry Letters, 2025):
Like-named read-outs stand apart in the source and are kept apart here.

Experiments:
PDE7 [1] = details: Figure 1, literature compounds; cited from earlier work
PDE4 = details: Figure 1, literature compounds; cited from earlier work
PDE7A = details: Figure 1, literature compounds; cited from earlier work
PDE7A1 = details: Figure 1, literature compounds; cited from earlier work
PDE4A4 = details: Figure 1, literature compounds; cited from earlier work
PDE4B = details: Figure 1, literature compounds; cited from earlier work
PDE7 [2] = details: cited from earlier work
PDE4D3 = details: Figure 1, literature compounds; cited from earlier work
[3] = target: T1, HEK293-PDE7B recombinant cell lines (Homo sapiens, UniProt Q9NP56); experiment: In vitro cell uptake and blocking of [11C]27; format: cell-based
T1 construct: host or cells: HEK293
Experimental: Control study: HEK293-PDE7B Recombinant cells (catalog#60412, BPS Bioscience) and HEK293 control cells (catalog# CRL-1573, ATCC) – both in logarithmic growth phase – were plated in a 24 well plate (2 × 10^5 cells per well) and cultured overnight. After 24 hr, each well was added 2 μCi of [ 11C]27, and incubated at 37 °C for 30 min or 60 min. The radioactive medium was aspirated and collected in a tube. The residual cells were washed twice with PBS, and then collected in the same tube. The cells were lysed with 1 N NaOH (200 μL) and washed twice with PBS, all the resulting solutions were collected in one tube.
The radioactivity in the collected supernatant and cell lysis buffer (600 μL/tube) was measured using a Cobra Model 5002/5003 gamma counter, respectively.
Blocking study: HEK293-PDE7B cells in logarithmic growth phase were plated in 24 well plate (2 × 10^5 cells per well) and cultured overnight. After 24 h, each well was added 2 μCi of [11C]27 with or without unlabeled reference compound 27 or BRL50481, respectively. The resulting culture medium contained 2 μCi of [ 11C]27, 1 µM of unlabeled compound 27 or BRL50481, and 5% DMSO. Cells were incubated at 37 °C for 60 min and samples were collected as described for the control study. The cell uptake was calculated according to the following eq.: cell uptake% = A lysis buffer/(A lysis buffer+Asupernate) (n = 4)

PDE7B = details: Figure 1, literature compounds; cited from earlier work
GSK3 = details: Figure 1, literature compounds; cited from earlier work
[4] = Lipophilicity by shake-flask method; format: physicochemical; details: pH 7.4, n-octanol/PBS, n = 3
Experimental: The general procedure for lipophilicity measurement was previously described, 4 with minor modification in this work. Briefly, the measurement of LogD value was carried out by mixing [11C]27 (radiochemical purity > 99%) with n-octanol (3.0 g) and PBS (0.1 M, 3.0 g) in a test tube. Both n-octanol and PBS were pre-saturated with each other prior to use. The tube was first vortexed for 5 min, followed by centrifugation (~3500-4000 rpm) for an additional 5 min. PBS and n-octanol were aliquoted, weighed and the radioactivity in each component was measured using a Cobra Model 5002/5003 gamma counter. The LogD was determined by Log [ratio of radioactivity in n-octanol and aqueous layer, respectively] (n = […]
For the evaluation of plasma protein binding,5 55.5 MBq radiotracer was added to 150 μL of plasma, which was pre-incubated under 37 °C for 5 min (n = 3). The samples were incubated at 37 °C for 10 min. To each 150 μL of radiotracer-plasma solution was added 300 μL of ice-cold PBS and all samples were briefly vortexed. […] The radioactivity (in Becquerel) was measured in the protein fraction (Aprotein), filtrate, and filter unit using a gamma counter (Wizard, PerkinElmer), Atotal was calculated as the sum of radioactivity, and the free fraction f u was calculated according to the following eq.: f u = 1-

[5] = In vitro stability of the formulated tracer (PBS with 10% ethanol; serum); format: in vitro ADME; details: 30, 60, 90 min; PBS containing 10% ethanol and serum of rodents, NHPs, humans
PDE7 [6] = experiment: microPET imaging in mice; format: in vivo, C57BL/6 mice; details: p.i.
Experimental: C57BL/6 mice (female; 8 weeks, 20–25 g) and Sprague-Dawley rats (male;
Rodent PET scans were carried out using a Genisys 4 PET (Sofie Biosciences, Culver, CA,
manufacturer’s acquisition software. Volumes of interest, including whole brain, cortex,

PDE7 [7] = experiment: PET imaging in rats (baseline and self-blocking); format: in vivo, Sprague-Dawley rats; details: rats
Experimental: page 10: All animal experiments were approved by the Institutional Animal Care and Use Committee of Massachusetts General Hospital or the National Institute of Radiological Sciences (Japan). C57BL/6 mice (female; 8 weeks, 20-25 g) and Sprague-Dawley rats (male; 8-9 weeks; 264-310 g) were kept on a 12 h light/12 h dark cycle and were allowed food and water ad libitum. Rodent PET scans were carried out using a […] (Sofie Biosciences, Culver, CA, USA) or a Siemens Inveon PET/CT system. Animals were kept under anesthesia using 1-2% (v/v) isoflurane in oxygen during the scan. The radiotracer (1.85 MBq for mice; 42-53 MBq for rats) was injected into the tail vein via a preinstalled catheter. A dynamic scan in 3D list mode was acquired for 60 min. The PET dynamic images were reconstructed using the manufacturer's acquisition software. Volumes of interest, including whole brain, cortex, striatum, hippocampus, thalamus and cerebellum were placed using AMIDE / PMOD software. The radioactivity was decay-corrected and expressed as standardized uptake value (SUV = radioactivity per mL tissue / injected radioactivity × bodyweight). S8

PDE7 [8] = experiment: PET imaging in nonhuman primates (baseline and self-blocking); format: in vivo, Cynomolgus monkeys; details: monkeys
[9] = Whole-body ex vivo biodistribution; format: in vivo; details: CD-1 mice
Experimental: PET imaging in nonhuman primates
Cynomolgus monkeys used for PET/CT scan were deprived of food for 12h but allowed to drink water at any time. Animals (Male, bodyweight 5.0-5.2 kg) were anesthetized with ketamine, placed into the scanner (GE Discovery Elite 690, USA), and maintained with 2% isoflurane and 98% oxygen. A solution of [11C]27 (6.24–9.84 mCi) was injected into the monkey via a venous catheter, followed by a dynamic PET scan. For the blocking study, the blocking reagent reference compound 27 (0.4 or 1.0 mg/kg, iv) was used, followed by the injection of [11C]27. Time-activity curves of each brain region were extracted from the corresponding VOIs and brain uptake was decay-corrected and expressed as SUV. biodistribution studies in miceWhole-body ex vivo
A solution of [11C]27 (1.85 MBq/100 µL) was injected into CD-1 mice via the tail vein.
Animals were sacrificed at 5, 15, 30, and 60 min post radiotracer injection (n= 4 for each time point). […] The radioactivity in these tissues was measured using a Cobra Model 5002/5003 gamma counter, and all radioactivity measurements were decay corrected based on the half-life of carbon-11. The results are expressed as the percentage of injected dose per gram of wet tissue (%ID/g).

[10] = Radiometabolite analysis in brain and plasma; format: in vivo, SD rats; details: n = 2; for parent fraction in plasma: rat plasma
Experimental: After intravenous injection of [11C]27 through the tail vein, SD rats were sacrificed at 5 min and 30 min post injection. Blood samples were collected and centrifuged at 14,000 rpm for 3 min at 4 °C to separate the plasma. The supernatant was collected and added to an ice-cooled test tube containing 100 μL of CH 3CN. After vortex for 10 s, the mixture was centrifuged at 14000 rpm for 3 min at 4 °C for deproteinization. The supernatant was collected, and the process was repeated until no precipitations were observed when CH3CN was added. The rat brain was immediately dissected, homogenized with 400 μL of ice-cooled CH3CN, and then centrifuged at 14,000 rpm for 5 min at 4 °C. The supernatant was collected in a test tube containing 100 μL of ice-cooled CH 3CN, and the process (vortex and centrifuge) was repeated until no precipitations were observed when CH3CN was added. An aliquot of the supernatant (100 µL), obtained from the brain homogenate, was injected into and analyzed by a radio-HPLC system. The percentage of [11C]27 to total radioactivity (corrected for decay) on the HPLC charts was calculated as (peak area for [11C]27/total peak area) × 100. The same procedure was used for metabolite analysis in plasma.
Statistical analysis was performed by Student’s two-tailed t-test, and asterisks were used to indicate statistical significance: * p < 0.05, ** p ≤ 0.01, *** p ≤ 0.001 and ****p < 0.0001.

T1 sequence (Q9NP56 whole entry): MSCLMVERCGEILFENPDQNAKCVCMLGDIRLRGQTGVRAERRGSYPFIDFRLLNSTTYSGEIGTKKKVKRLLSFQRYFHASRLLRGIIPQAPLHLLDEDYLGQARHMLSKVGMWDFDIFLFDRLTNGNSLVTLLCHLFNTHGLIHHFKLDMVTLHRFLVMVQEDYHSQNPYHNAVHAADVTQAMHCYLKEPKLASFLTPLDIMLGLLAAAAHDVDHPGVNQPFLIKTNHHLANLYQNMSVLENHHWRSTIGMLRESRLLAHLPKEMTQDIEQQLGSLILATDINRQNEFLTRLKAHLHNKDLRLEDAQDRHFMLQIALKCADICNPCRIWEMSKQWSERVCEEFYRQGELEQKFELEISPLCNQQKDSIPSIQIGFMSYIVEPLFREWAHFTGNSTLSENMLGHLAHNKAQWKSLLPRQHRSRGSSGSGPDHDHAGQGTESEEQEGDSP

In the case of COc1ccc(C2=NN(C3CCN(C(=O)N4CCOCC4)CC3)C(=O)C3CC=CCC23)cc1Cl (centres unmarked) [Compound 21], the IC50 (PDE7 [1]) is given as 23 nM and the IC50 (PDE4) is given as 2.3 nM.
In the case of O=c1[nH]c(=S)[nH]c2cc(F)c(F)cc12 [Compound 15], the IC50 (PDE7A) is given as 74 nM.
In the case of Cn1c(-c2ccoc2)nc(=O)c2ccccc21 [Compound 16], the IC50 (PDE7A) is given as 96 nM.
In the case of COc1cc(COC(=O)c2ccc(-c3ccccc3)o2)cc(OC)c1OC [Compound 11], the IC50 (PDE7A1) is given as 5100 nM.
In the case of O=C(Nc1ccc(N2CCOCC2)cc1)c1cn(Cc2c(F)cccc2Cl)c2ccc(=O)[nH]c2c1=O [Compound 13], the IC50 (PDE7A1) is given as 13 nM and the IC50 (PDE4A4) is given as greater than 1000 nM.
For COc1ccc(-c2cc3c(n2-c2ccc(S(=O)(=O)Nc4nc(C)cc(C)n4)cc2)CCC(N2CCN(C)CC2)C3)cc1C (centres unmarked) [Compound 20], the IC50 (PDE4) is listed as 630 nM and the IC50 (PDE7A) is listed as 14 nM.
In the case of CCCCOc1nc2c(c(=O)n(C)c(=O)n2C)n1CCCC(=O)Nc1cc(C(C)(C)C)ccc1O [Compound 5], the IC50 (PDE7A) is given as 5070 nM and the IC50 (PDE4B) is given as 5430 nM.
For O=C1Nc2c(Cl)ccc(OCC[18F])c2C2(CCCCC2)N1 [[^18F]-MICA-003], the “affinity to PDE7” value (PDE7 [2]; ref Thomae et al.) is given as 17 nM.
For O=C1Nc2c(Cl)ccc(Oc3c(F)cccc3C(=O)N3CC([18F])C3)c2C2(CCCCC2)N1 [[^18F]-P7-2302], the “affinity to PDE7” value (PDE7 [2]; earlier 18F-isotopologue of the same spiro quinazoline structure) is given as 0.18 nM.
In the case of Cn1nc(-c2ccc(C(N)=O)cc2)s/c1=N\C1CCCCC1 [Compound 12], the IC50 (PDE7A1) is given as 61 nM and the IC50 (PDE4D3) is given as 15300 nM.
For CCn1c(NC(C)C)nc2c(C3CCN(C(C)=O)C3)csc2c1=O (centres unmarked) [Compound 6], the IC50 (PDE7A) is listed as 15 nM and the IC50 (PDE4B) is listed as 1900 nM.
For COc1ccc(C(=O)CN2c3c(sc4ccccc34)C(=O)NS2(=O)=O)cc1 [Compound 2], the IC50 (PDE4) is given as 30000 nM.
In the case of O=[N+]([O-])c1ccc(Sc2ccncc2)c(Cl)c1 [Compound 10], the IC50 (PDE7 [1]) is given as 180 nM.
In the case of O=C1Nc2c(Br)cccc2C2(CCCCC2)N1 [Compound 19], the IC50 (PDE7 [1]) is listed as 70 nM.
In the case of O=C1Nc2ccc(Cl)c(Cl)c2C2(CCCCC2)N1 [Compound 18], the IC50 (PDE7 [1]) is given as 14 nM.
In the case of CCOC(=O)c1sc(Nc2nc(N3CCNCC3)c3c(n2)N(Cc2cc(OC)c(OC)c(OC)c2)CC3)nc1C [Compound 7], the IC50 (PDE7 [1]) is listed as 6 nM.
For Cc1ccc([N+](=O)[O-])cc1S(=O)(=O)N(C)C [Compound 17], the “blockade of [11C]27 cell uptake” value ([3]; blocker 1 μM, 60 min incubation, PDE7B overexpressing HEK293 cells, n = 4) is listed as roughly 55%, the IC50 (PDE7A) is listed as 150 nM and the IC50 (PDE7B) is listed as 12100 nM.
For c1ccc(-c2nc(=NCc3cccnc3)sn2-c2ccccc2)cc1 [Compound 23], the IC50 (PDE7 [1]) is listed as 380 nM and the IC50 (GSK3) is listed as 1280 nM.
In the case of CCOC(=O)c1sc(Nc2nc(NCc3ccc(S(N)(=O)=O)cc3)c3c(ncn3CC)n2)nc1C [Compound 4], the IC50 (PDE7 [1]) is given as 11 nM.
In the case of O=C1NS(=O)(=O)N(Cc2ccc(Cl)c(Cl)c2)c2ccccc21 [Compound 1], the IC50 (PDE7 [1]) is listed as 8000 nM and the IC50 (PDE4) is listed as 19000 nM.
In the case of [11CH3]Oc1ccc(Cl)c2c1C1(CCCCC1)NC(=O)N2 [[^11C]27], the logD [4] is reported as 3.67 ± 0.04, the in vitro stability [5] is reported as “no obvious degradation or radiolysis was found” and the “radioactivity uptake in HEK293-PDE7B cells versus control cells” value ([3]; 30 and 60 min incubation) is reported as 6–7 fold. The “time to peak SUV in brain” value (PDE7 [6]) was no more than 2 min, the “plateau of brain uptake” value (PDE7 [7]; at 20 min postinjection) was 0.5 SUV and the “highest SUV values in brain” value (PDE7 [7]; at approximately 5 min postinjection) was greater than 2 SUV. The “peak SUV (SUVmax) in brain” value (PDE7 [8]; baseline) was 3 SUV, the “time of peak SUV in brain” value (PDE7 [8]; p.i.) was “about 3 min” and the “radioactivity accumulation in heart” value ([9]; 5 min p.i.) was “up to 24 % ID/g”. For the same compound, the cardiac uptake ([9]; within 60 min) was “less than 2%”, the “intact parent fraction in brain” value ([10]; rat brain, 5 min) was “More than 98%” and the “parent fraction in brain homogenates” value ([10]; rat brain, 30 min postinjection) was “more than 75%”. The “parent fraction in plasma” value ([10]; 5 min p.i.) was 70% ± 18% and the “parent fraction in plasma” value ([10]; 30 min p.i.) was 19% ± 0.6%.
For Nc1nc2c(nc(Br)n2C2CCCc3cccc(Br)c32)c(=O)[nH]1 (centres unmarked) [Compound 3], the IC50 (PDE7 [1]) is given as 1210 nM.
In the case of COc1ccccc1N1CCN(CCCC(=O)Nc2ccc(C(C)(C)C)cc2)CC1 [Compound 22], the IC50 (PDE7A) is listed as 27000 nM and the IC50 (PDE4B) is listed as 96000 nM.
